According to patent US20110092486A1, “IH CHANNEL INHIBITORS FOR THE PROMOTION OF WAKEFULNESS” (priority 2006, published 2011):
Read-outs that look alike come from different tables or passages of the source. Marks after values point to notes of the source that are not given here.

Columns and labels:
[1] = tested on: sleep-wake organisation in the rat; assay: Effect of Ih channel inhibition on sleep-wake organisation in rats (ACSO, EEG/EMG/movement); assay type: in vivo
Protocol: Methods: Sleep-wake organization was evaluated in instrumented male rats held on a 12:12 light-dark cycle. Classification of sleep-wake states was measured using an automated system (ACSO, Automatic Classification of Sleep Organization)^[i,ii] that records and processes EEG (cortical), EMG (neck muscle) and movement signals. Subjects were assigned to placebo, Org 34167 or ivabradine treatment groups and signals were recorded on two successive days. The first recording session provided a baseline recording following treatment with placebo only. This baseline day was used to extract a sleep classification algorithm for each individual subject. On the second day recording was started immediately after administration of placebo, Org 34167 (i.p.) or ivabradine (s.c.). Treatments were administered 2.5-3.0 h after lights-on. Data analysis and statistics: EEG, EMG and movement signals were used to classify every 2 second epoch into 6 different sleep stages using the algorithm derived for each individual subject from the baseline day recording. Six sleep-wake states were discriminated—Active waking (AW), Passive waking (PW), Light sleep (LS), Deep sleep (DS), Intermediate sleep (IS) and Rapid Eye Movement sleep (REM). Subsets of the six sleep-wake states were also combined to give Waking (PW and AW), Sleep (IS, REM, LS and DS) and NREM (LS and DS). For each treatment group, the median percentage of time spent in each sleep or waking state were calculated in 3 hour time intervals after drug injection. Significance was calculated by means of the two-sided rank sum test (Mann-Whitney test; P<0.025).

Ih channel = Ih channel inhibition, statement without method
hHCN1 = target: T1, hHCN1 (Homo sapiens, UniProt O60741); assay: Determination of Ih channel inhibition, time-dependent current in HEK.hHCN1.2H10 cells; assay type: cell-based; conditions: holding potential −40 mV
T1 construct: expressed in transfected cells; host or cells: HEK cells, clone HEK.hHCN1.2H10
T1 sequence (O60741 1-890): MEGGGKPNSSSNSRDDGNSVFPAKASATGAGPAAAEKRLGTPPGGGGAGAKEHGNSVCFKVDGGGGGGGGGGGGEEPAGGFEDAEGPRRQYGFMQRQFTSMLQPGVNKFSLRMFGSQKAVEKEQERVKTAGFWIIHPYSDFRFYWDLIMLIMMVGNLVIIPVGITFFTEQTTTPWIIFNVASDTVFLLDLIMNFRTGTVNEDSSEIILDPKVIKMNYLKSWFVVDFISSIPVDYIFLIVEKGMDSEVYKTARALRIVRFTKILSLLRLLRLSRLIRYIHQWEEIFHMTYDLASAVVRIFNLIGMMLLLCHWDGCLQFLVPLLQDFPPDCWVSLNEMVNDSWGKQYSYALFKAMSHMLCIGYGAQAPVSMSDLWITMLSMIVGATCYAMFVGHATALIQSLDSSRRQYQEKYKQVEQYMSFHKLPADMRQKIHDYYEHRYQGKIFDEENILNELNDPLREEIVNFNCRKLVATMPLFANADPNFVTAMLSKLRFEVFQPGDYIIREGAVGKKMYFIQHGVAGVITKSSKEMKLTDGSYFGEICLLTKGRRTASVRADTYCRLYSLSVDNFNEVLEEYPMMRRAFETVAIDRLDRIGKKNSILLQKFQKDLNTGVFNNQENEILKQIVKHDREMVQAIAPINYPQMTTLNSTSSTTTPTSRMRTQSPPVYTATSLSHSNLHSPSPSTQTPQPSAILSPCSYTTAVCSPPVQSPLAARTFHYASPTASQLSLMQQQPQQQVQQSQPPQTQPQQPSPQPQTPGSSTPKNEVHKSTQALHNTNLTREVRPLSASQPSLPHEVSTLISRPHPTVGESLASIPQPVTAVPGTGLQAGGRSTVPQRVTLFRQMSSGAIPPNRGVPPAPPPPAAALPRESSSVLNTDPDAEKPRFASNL
Protocol: Methods: HEK.hHCN1.2H10 cells growing in culture were dissociated using CDS to lift the cells. They were suspended in high K external solution and used in the assay at a density of 2×10^6 cells.ml^−1. Two separate runs were performed with voltage steps to −80 mV and […] for 1 s; the holding potential in both cases was −40 mV. The amplitude of the time-dependent current (assumed to be all hHCN1) was measured as the difference between the current recorded immediately after the capacity transient on stepping to the test voltage and the current measured after it had reached a steady state amplitude (PeakAmp metric). The amount of inhibition was assessed by calculating the ratio of Post Compound PeakAmp/Pre Compound PeakAmp. Thus a ratio of 1 would indicate no inhibition and 0 would indicate 100% inhibition. Compounds were tested at concentrations between 0.152 μM and 333.3 μM, and a dose-response curve constructed. The IC50 value was obtained (the concentration causing half maximal inhibition) and the pIC50 calculated (the negative logarithm of the molar concentration causing half-maximal inhibition).

[2] = 5 mg/kg s.c., 9-12 h, lights off
[3] = 15 mg/kg s.c., 0-3 h, lights on
[4] = 15 mg/kg s.c., 3-6 h, lights on
[5] = 15 mg/kg s.c., 6-9 h, lights on
[6] = 15 mg/kg s.c., 9-12 h, lights off
[7] = 50 mg/kg s.c., 0-3 h, lights on
[8] = 50 mg/kg s.c., 3-6 h, lights on
[9] = 50 mg/kg s.c., 6-9 h, lights on
[10] = 50 mg/kg s.c., 9-12 h, lights off
[11] = 0.3 mg/kg i.p., 0-3 h, lights on
[12] = 0.3 mg/kg i.p., 3-6 h, lights on
[13] = 0.3 mg/kg i.p., 6-9 h, lights on
[14] = 0.3 mg/kg i.p., 9-12 h, lights off
[15] = 1 mg/kg i.p., 9-12 h, lights off

Which results are given for `COc1cc2c(cc1OC)CC(=O)N(CCCN(C)C[C@H]1Cc3cc(OC)c(OC)cc31)CC2.Cl` [ivabradine, (+)-3-[3-[N-[4,5-dimethoxybenzocyclobutan-1-(S)-ylmethyl]-N-methylamino]propyl]-7,8-dimethoxy-2,3,4,5-tetrahydro-1H-3-benzazepin-2-one hydrochloride]?
median percentage of time spent in NREM ([1]; 5 mg/kg s.c., 0-3 h, lights on): 49.5%; median percentage of time spent in Sleep ([1]; 5 mg/kg s.c., 0-3 h, lights on): 58.2%; median percentage of time spent in Waking ([1]; 5 mg/kg s.c., 0-3 h, lights on): 41.8%; median percentage of time spent in NREM ([1]; 5 mg/kg s.c., 3-6 h, lights on): 68.9%; median percentage of time spent in Sleep ([1]; 5 mg/kg s.c., 3-6 h, lights on): 84.8%; median percentage of time spent in Waking ([1]; 5 mg/kg s.c., 3-6 h, lights on): 15.2%; median percentage of time spent in NREM ([1]; 5 mg/kg s.c., 6-9 h, lights on): 56.2%; median percentage of time spent in Sleep ([1]; 5 mg/kg s.c., 6-9 h, lights on): 72.9%; median percentage of time spent in Waking ([1]; 5 mg/kg s.c., 6-9 h, lights on): 27.1%; median percentage of time spent in NREM [1, 2]: 39.5%; median percentage of time spent in Sleep [1, 2]: 50.4%; median percentage of time spent in Waking [1, 2]: 49.6%; median percentage of time spent in NREM [1, 3]: 53.2%; median percentage of time spent in Sleep [1, 3]: 60.1* %; median percentage of time spent in Waking [1, 3]: 39.9* %; median percentage of time spent in NREM [1, 4]: 65.8%; median percentage of time spent in Sleep [1, 4]: 83.0%; median percentage of time spent in Waking [1, 4]: 17.0%; median percentage of time spent in NREM [1, 5]: 60.0%; median percentage of time spent in Sleep [1, 5]: 72.5%; median percentage of time spent in Waking [1, 5]: 27.5%; median percentage of time spent in NREM [1, 6]: 37.4%; median percentage of time spent in Sleep [1, 6]: 45.2%; median percentage of time spent in Waking [1, 6]: 54.8%; median percentage of time spent in NREM [1, 7]: 41.4%; median percentage of time spent in Sleep [1, 7]: 42.2* %; median percentage of time spent in Waking [1, 7]: 57.8* %; median percentage of time spent in NREM [1, 8]: 63.2%; median percentage of time spent in Sleep [1, 8]: 80.4%; median percentage of time spent in Waking [1, 8]: 19.6%; median percentage of time spent in NREM [1, 9]: 65.0%; median percentage of time spent in Sleep [1, 9]: 81.0%; median percentage of time spent in Waking [1, 9]: 19.0%; median percentage of time spent in NREM [1, 10]: 45.8* %; median percentage of time spent in Sleep [1, 10]: 57.9* %; median percentage of time spent in Waking [1, 10]: 42.1* %; effect on waking and sleep compared to placebo ([1]; ivabradine s.c., first 3 hours of the session): dose dependently increased waking and decreased sleep

Which “Ih channel inhibitor or not” value (Ih channel) does the source give for `NC(=O)C[S+]([O-])C(c1ccccc1)c1ccccc1` (centres unmarked) [modafanil] here?
The value was “not to be an Ih channel inhibitor”.

With `C=CC[C@H](N)c1ccccc1-c1noc2ccccc12.Cl` [Org 34167, (S)-2-(1,2-benzisoxazol-3-yl)-α-2-propenylbenzenemethanamine hydrochloride] as the compound, how does the “median percentage of time spent in NREM” value [1, 11] read?
The value was 46.4* %.

What about the “median percentage of time spent in Sleep” value [1, 11] of the same compound?
The value was 54.1* %.

And the “median percentage of time spent in Waking” value [1, 11]?
Its value is 45.9* %.

And the “median percentage of time spent in NREM” value [1, 12]?
The value was 63.5%.

And the “median percentage of time spent in Sleep” value [1, 12]?
Its value is 80.4%.

And the “median percentage of time spent in Waking” value [1, 12]?
The value was 19.6%.

What about the “median percentage of time spent in NREM” value [1, 13] of the same compound?
Its value is 63.8%.

What about the “median percentage of time spent in Sleep” value [1, 13] of the same compound?
The value was 77.9%.

What about the “median percentage of time spent in Waking” value [1, 13] of the same compound?
The value was 22.1%.

What about the “median percentage of time spent in NREM” value [1, 14] of the same compound?
The value was 40.9%.

And the “median percentage of time spent in Sleep” value [1, 14]?
The value was 47.3%.

What about the “median percentage of time spent in Waking” value [1, 14] of the same compound?
Its value is 52.7%.

What about the “median percentage of time spent in NREM” value ([1]; 1 mg/kg i.p., 0-3 h, lights on) of the same compound?
The value was 7.6* %.

What about the “median percentage of time spent in Sleep” value ([1]; 1 mg/kg i.p., 0-3 h, lights on) of the same compound?
Its value is 7.6* %.

What about the “median percentage of time spent in Waking” value ([1]; 1 mg/kg i.p., 0-3 h, lights on) of the same compound?
Its value is 92.4* %.

And the “median percentage of time spent in NREM” value ([1]; 1 mg/kg i.p., 3-6 h, lights on)?
The value was 59.1* %.

And the “median percentage of time spent in Sleep” value ([1]; 1 mg/kg i.p., 3-6 h, lights on)?
Its value is 64.2* %.

And the “median percentage of time spent in Waking” value ([1]; 1 mg/kg i.p., 3-6 h, lights on)?
The value was 35.8* %.

What about the “median percentage of time spent in NREM” value ([1]; 1 mg/kg i.p., 6-9 h, lights on) of the same compound?
The value was 63.9* %.

What about the “median percentage of time spent in Sleep” value ([1]; 1 mg/kg i.p., 6-9 h, lights on) of the same compound?
Its value is 81.2%.

And the “median percentage of time spent in Waking” value ([1]; 1 mg/kg i.p., 6-9 h, lights on)?
The value was 18.8%.

What about the “median percentage of time spent in NREM” value [1, 15] of the same compound?
Its value is 42.1%.

What about the “median percentage of time spent in Sleep” value [1, 15] of the same compound?
The value was 51.8%.

What about the “median percentage of time spent in Waking” value [1, 15] of the same compound?
Its value is 48.2%.

What about the “effect on waking and sleep compared to placebo” value ([1]; Org 34167 i.p., first 3-6 hours of the session) of the same compound?
Its value is “dose dependently increased waking and decreased sleep”.

What about the IC50 (hHCN1; voltage step to −80 mV for 1 s, read-out: IC50 μM −80 mV) of the same compound?
Its IC50 is 3.2 µM.

What about the IC50 (hHCN1; voltage step to −120 mV for 1 s, read-out: IC50 μM −120 mV) of the same compound?
Its IC50 is 8.6 µM.
